Assay [1] relates to Mycobacterium tuberculosis. Nature of the assay: Antimycobacterial activity against PknGMtb-deficient Mycobacterium tuberculosis H37Rv at 100 mg/l after 7 days by microscopy. It counts as functional, organism-based.
Assay [2] relates to Mycolicibacterium smegmatis. Put plainly: Antimycobacterial activity against Mycobacterium smegmatis MC2 155 by Etest method. Type of assay: functional. The note with it: str. MC2 155.
Assay [3] deals with Mycobacterium tuberculosis. Nature of the assay: Antimycobacterial activity against Mycobacterium tuberculosis H37Rv at 100 mg/l after 7 days by microscopy. Type of assay: functional, organism-based.
Assay [4] concerns Mycolicibacterium smegmatis. Put plainly: Antimycobacterial activity against Mycobacterium smegmatis MC2 155 harboring PknG K181M mutant gene by Etest method. Type of assay: functional. The note with it: str. MC2 155.
Assay [5] concerns Mycolicibacterium smegmatis. Put plainly: Antimycobacterial activity against PknGMsm-deficient Mycobacterium smegmatis by Etest method. Type of assay: functional.
The subject of assay [6] is Mycolicibacterium smegmatis. Nature of the assay: Antimycobacterial activity against Mycobacterium smegmatis MAR4 harboring disrupted PknGMsm gene by Etest method. Type of assay: functional.
Assay [7] has as its system Mycolicibacterium smegmatis. Put plainly: Antimycobacterial activity against Mycobacterium smegmatis harboring PknG Msm gene by Etest method. Type of assay: functional.
Assay [8] relates to Mycolicibacterium smegmatis. Nature of the assay: Antimycobacterial activity against PknGMsm-deficient Mycobacterium smegmatis harboring PknG K181M mutant gene by Etest method. Type of assay: functional.

Values after ≈ are worked out from the molar mass of the structure shown. Active and inactive are the calls of the source.

In the case of `CC[C@H]1OC(=O)[C@H](C)[C@@H](O[C@H]2C[C@@](C)(OC)[C@@H](O)[C@H](C)O2)[C@H](C)[C@@H](O[C@@H]2O[C@H](C)C[C@H](N(C)C)[C@H]2O)[C@](C)(O)C[C@@H](C)C(=O)[C@H](C)[C@@H](O)[C@]1(C)O` [ERYTHROMYCIN], the result in assay [1] was Active. The MIC in assay [2] is 32 µg/mL (≈ 43.6 µM); in assay [4] it was 12 µg/mL (≈ 16.4 µM); in assay [5], 3 µg/mL (≈ 4.09 µM); in assay [6], 4 µg/mL (≈ 5.45 µM); in assay [7], 32 µg/mL (≈ 43.6 µM); in assay [8], 3 µg/mL (≈ 4.09 µM). In addition, the result in assay [3] was inactive.
For the molecule `CC[C@@H](CO)NCCN[C@@H](CC)CO` [ETHAMBUTOL], the MIC was determined as 0.25 µg/mL (≈ 1.22 µM) in assay [2]; 0.064 µg/mL (≈ 0.313 µM) in assay [4]; 0.064 µg/mL (≈ 0.313 µM) in assay [5]; 0.064 µg/mL (≈ 0.313 µM) in assay [6]; 0.25 µg/mL (≈ 1.22 µM) in assay [7].
In the case of `C[C@@H](O)[C@H]1C(=O)N2C(C(=O)O)=C(SCCNC=N)C[C@H]12` [IMIPENEM ANHYDROUS], the MIC in assay [2] came out at 6 µg/mL (≈ 20 µM); in assay [4], 1 µg/mL (≈ 3.34 µM); in assay [5], 0.38 µg/mL (≈ 1.27 µM); in assay [6], 0.38 µg/mL (≈ 1.27 µM); in assay [7], 6 µg/mL (≈ 20 µM); in assay [8], 0.38 µg/mL (≈ 1.27 µM).
Consider `CO[C@H]1/C=C/O[C@@]2(C)Oc3c(C)c(O)c4c(O)c(c(/C=N/N5CCN(C)CC5)c(O)c4c3C2=O)NC(=O)/C(C)=C\C=C\[C@H](C)[C@H](O)[C@@H](C)[C@@H](O)[C@@H](C)[C@H](OC(C)=O)[C@@H]1C` [RIFAMPIN], for which the MIC in assay [2] is greater than 32 µg/mL; in assay [4], 4 µg/mL (≈ 4.86 µM); in assay [5] it was 4 µg/mL (≈ 4.86 µM); in assay [6], 4 µg/mL (≈ 4.86 µM); in assay [7], greater than 32 µg/mL.
`CN[C@H](CC(C)C)C(=O)N[C@H]1C(=O)N[C@@H](CC(N)=O)C(=O)N[C@H]2C(=O)N[C@H]3C(=O)N[C@H](C(=O)N[C@H](C(=O)O)c4cc(O)cc(O)c4-c4cc3ccc4O)[C@H](O)c3ccc(c(Cl)c3)Oc3cc2cc(c3O[C@@H]2O[C@H](CO)[C@@H](O)[C@H](O)[C@H]2O[C@H]2C[C@](C)(N)[C@H](O)[C@H](C)O2)Oc2ccc(cc2Cl)[C@H]1O` [VANCOMYCIN]: the MIC was determined as 48 µg/mL (≈ 33.1 µM) in assay [2]; 16 µg/mL (≈ 11 µM) in assay [4]; 4 µg/mL (≈ 2.76 µM) in assay [5]; 4 µg/mL (≈ 2.76 µM) in assay [6]; 48 µg/mL (≈ 33.1 µM) in assay [7]; 4 µg/mL (≈ 2.76 µM) in assay [8].

What is called MIC is the smallest concentration in the dilution series that meets the test's criterion for growth inhibition. A lower MIC goes with greater potency.

(Values after ChEMBL document CHEMBL1649573, “Protein kinase G is required for intrinsic antibiotic resistance in mycobacteria” (2009).)
